# Source: patent publication US20260027096A1, “PHD INHIBITORS” (Oxford University Innovation Limited, priority 2023, published 2026)
# Entries after “also recorded” stand apart in the source; their conditions may differ.
# Key:
# [1] = test system: murine AML cells harbouring FLT3-ITD mutations (with and without NPM1 mutations), PML-RARα and AML1-ETO; test: Proliferation and apoptosis of murine AML cells with other drivers; format: cell-based, mouse
# From the text: (§1) Viable cells were counted by trypan blue exclusion at the indicated time points. To analyse cells undergoing apoptosis, cells were suspended in binding buffer containing PE-conjugated Annexin-V or FITC-conjugated Annexin-V, and either PI or DAPI.
# To validate the anti-leukaemic effect of PHD inhibition on AML cells transformed by drivers independent from the MLL/Meis1/Hoxa9 axis, murine AML cells harbouring FLT3-ITD mutations were employed (with and without NPM1 mutations), PML-RARα and AML1-ETO.
# [2] = test system: K562, OCI-AML3, KASUMI1, MV-4-11 and MOLM13 cells; test: Proliferation and apoptosis of human leukaemic cell lines; format: cell-based; conditions: 50 μM
# From the text: as §1
# To examine the impact of PHD inhibition in human leukaemia cells with other mutational backgrounds, different myeloid leukaemia cells were used, namely K562 (CML, with BCR-ABL translocation), OCL-AML3 cells (AML with DNMT3A, NRAS and NPM1 mutations), KASUMI1 cells (AML with AML-ETO translocation), MV-4-11 (AML with FLT3-ITD mutation), and MOLM13 (AML with FLT3-ITD mutation and MLL-AF9 translocation). […] Thus, multiple potent PHD inhibitors, with distinct mode of action, compromise leukaemic cells independently from their mutational status.
# [3] = test system: primary human AML cells (patient samples); test: Apoptosis of primary human AML patient samples; format: cell-based; conditions: 50 μM
# Protocol: Frozen AML samples were retrieved from Barts Cancer Institute Biobank and quickly thawed at 37° C. Upon thawing, T cells were depleted from all samples using EasySep™ Human TCR Alpha/Beta Depletion Kit (Stem Cell Technologies, #17847). Enriched samples were plated in concentration 0.4-1.0×10^6/mL in Myelocult H5100 medium (Stem Cell Technologies, #05150) supplemented with 20 ng/ml IL-3, G-CSF and TPO (Biolegend) in co-culture with irradiated MS-5 cells and treated with 50 μM Dap, 50 μM IOX5 (68, example 46), 1 μM Venetoclax or vehicle control for 7 days. After 3 days of treatment, half the sample was used for plating CFU assays and initial analyses, the other half was given fresh medium containing the corresponding agent. After 7 days, viable cell numbers were counted, viability was assessed using Annexin V FITC/PI stain, cell cycle was measured using PI, and the expression of CD45, CD34, CD11b and CD14 was determined. CFC assays were counted 11 days after plating. Samples were deemed sensitive to treatment if either a decrease in viability or a decrease in proliferation, as validated by cell cycle phase distribution, was detected.
# To investigate the clinical utility of PHD inhibition in human AML, it was next determined the impact of Dap or IOX5 (68, example 46) on AML patient samples (FIG. 29), focusing on poor-risk AML, which is characterised by a particularly low overall patient survival rate^73.
# Finally, the clinical applicability of PHD inhibition in AML was validated by treating independent patient-derived primary AML cells with Daprodustat (2) and IOX5 (68, example 46). […] Taken together, Examples 163 to 167 provide genetic and pharmacological evidence that PHD inhibition is a plausible therapeutic strategy in AML.
# [4] = test system: BNIP3 mRNA in human AML cells; test: qPCR of BNIP3 (BAX, BAK) in human AML cells; format: cell-based; conditions: for BNIP3 mRNA expression: MOLM13, OCI-AML3, MV411 and THP-1 cells; for BNIP3, BAX and BAK transcripts (qPCR): MOLM-13 cells, 50 μM
# Protocol: RNA was isolated using Direct-zol RNA Miniprep kit (Zymo Research, #R2051) and reverse transcribed using High-Capacity cDNA Reverse Transcription Kit (Applied Biosystems). For real-time quantitative PCR (qPCR), 5 ng of cDNA, 5 μL of PowerUp SYBR Green MasterMix (Applied Biosystems) and 2 pmol of primers were used per well of 384-well plate. Reactions were performed in triplicate using C1000 Thermocycler 384well (BioRad). Gene expression was quantified using comparative AA-Ct method and ACTB was used as the housekeeping gene. Data is expressed as log 2 fold change in comparison to control sample and represents results of three independent experiments measured in duplicate.
# Given that the primary function of PHD2 is to promote HIF-α degradation, HIF-1α levels were measured following the treatment of AML cells with PHD inhibitors. […] To investigate whether HIF-α mediates the anti-leukaemic effects of PHD inhibition, Meis1/Hoxa9-transformed AML cells lacking both Hif1α and Hif2α and control cells were employed (Vukovic et al., 2015). […] Next, to investigate a molecular mechanism behind the anti-leukaemic effect of PHD inhibition, HIF-dependent transcripts that were dysregulated were interrogated via (68, example 46)-treatment in murine cells.
# [5] = test system: THP-1 cells in NBSGW recipient mice; test: THP-1 xenotransplantation in NBSGW mice; format: in vivo; conditions: 30 mg/kg i.p. twice daily for 21 days
# From the text: (A) 100,000 THP-1 cells were transplanted into NBSGW recipient mice. […] (B-C) Percentage of human CD45+CD33+ and human CD45+CD14+ cells in the BM and spleen, respectively (n=4-5). (D) 100,000 OCI-AML3 cells were transplanted into NBSGW recipient mice. […] (E) Percentage of human CD45+CD33+CD14+ cells in the liver, BM and PB, respectively (n=3-7). (F) 2,000 LSK cells from iMLL-AF9;Control mice were sorted and transplanted into irradiated recipient mice. […] (H) LDA in secondary recipients transplanted with indicated doses of CD45.2+BM cells from primary recipients (n=9-10 per dose). (I) Plot showing Poisson statistical analysis. Circles represent the percentages of negative mice for each cell dose, triangles represent any data values with zero negative responses. Solid lines indicate the best-fit linear model, and dotted lines represent 95% CIs. LSC frequencies were calculated using the ELDA software 121. (J) Steady-state analyses of 8-to 10-week-old C57B16 mice treated with IOX5 or vehicle control 2× daily via i.p. injection for 14 days (n=5-7). (K) PB counts (n=6). (L) Total BM cellularity (n=5-9). (M) Total numbers of HSC, MPP, HPC-1 and HPC-2 populations (n=5-7). Data represent mean±SEM; * p<0.05; ** p<0.01; *** p<0.001; **** p<0.0001.
# 100,000 THP-1 cells, 100,000 OCI-AM3 cells or 100,000 MV411 cells (for combination experiments) were tail vein injected into non-irradiated 10-to 12-week-old mixed gender NBSGW mice and began drug treatment 14 days after transplantation. […] Mice were culled 5 weeks after transplantation.
# Next, it was examined whether IOX (68, example 46)5 has a therapeutic impact on MLL-AF9-independent AML. […] Therefore, IOX5 (68, example 46) compromises both MLL-rearranged and non-MLL AML in vivo.
Compound,apoptosis (Annexin-V+DAPI+) [1],proliferation [1],apoptosis [2],proliferation [2],apoptosis of primary human AML cells [3],apoptosis of primary human AML cells ([3]; listed as Dap),BNIP3 mRNA expression [4],"BNIP3, BAX and BAK transcripts (qPCR) [4]",leukaemic burden [5],tolerability of treatment [5]
"O=C(O)CNC(=O)c1c(O)n(C2CCCCC2)c(=O)n(C2CCCCC2)c1=O [Daprodustat, daprodustat, reference compound]",induced apoptosis,reduced the proliferative rate,induced their apoptosis,consistently compromised the proliferation,significantly increased primary human AML cell apoptosis,clearly increased apoptosis,strongly induced BNIP3 expression,"upregulation of BNIP3 was found, as well as its downstream effectors BAX and BAK",significantly reduced leukaemic burden,well tolerated
O=C(NCC1CCC(C(F)(F)F)CC1)c1c[nH]c(-n2cccn2)cc1=O (stereo not drawn) [IOX5],induced apoptosis,reduced the proliferative rate,induced their apoptosis,consistently compromised the proliferation,clearly increased apoptosis; also recorded: significantly increased primary human AML cell apoptosis,–,strongly induced BNIP3 expression,"upregulation of BNIP3 was found, as well as its downstream effectors BAX and BAK",significantly reduced leukaemic burden,–
